# Measured values: patent publication US7615527B2, “Peptides which modulate blood coagulation and methods of use thereof” (Oregon Health & Science University, priority 2001, dated 2009)
# Square brackets hold non-standard residues; d marks the D form. Ends that are not written are not given here. Peptide text beside a SMILES is read from it. pY = N[C@@H](Cc1ccc(OP(=O)(O)O)cc1)C(=O)O
# Assays:
# α-thrombin [1] = target: T1, α-thrombin (Homo sapiens, UniProt P00734); assay: Competitive binding assay: α-thrombin binding to fluoresceinated γ′ 408-427 peptide; set-up: incubating 2 nM fluoresceinated peptide with 2 μM α-thrombin; thrombin: gift of Dr. John Fenton, II and Dr. Walter Kisiel; tracer peptide: Research Genetics; conditions: 2 nM fluoresceinated peptide with 2 μM α-thrombin
# Text: Proteins, Peptides, and DNA Aptamers. Human α-thrombin was generously provided by Dr. John Fenton, II (New York State Department of Health, Albany, N.Y.) and Dr. Walter Kisiel (University of New Mexico, Albuquerque, N. Mex.). Human γ-thrombin was obtained from Haematologic Technologies, Inc. (Essex Junction, Vt.). Tyrosine-phosphorylated derivatives of peptides corresponding to the γ′ chain carboxyl terminus, […] (SEQ ID NO: 11), were obtained from Research Genetics, Inc. (Huntsville, Ala.) and GeneMed Synthesis, Inc. (South San Francisco, Calif.). The peptides were purified to >95% purity by HPLC, and their molecular weights were verified by mass spectrometry. Tyrosine-sulfated, amino-terminal acetylated hirudin peptide 53-65 was obtained from Bachem, Inc. (Torrance, Calif.) and tyrosine-sulfated hirudin peptide 54-65 was obtained from Sigma (St. Louis, Mo.). Single-stranded DNA aptamers 5′-GGT-TGG-TGT-GGT-TGG-3′ (SEQ ID NO: 5), referred to as HD1, and 5′-AGT-CCG-TGG-TAG-GGC-AGG-TTG-GGG-TGA-CT-3′ (SEQ ID NO: 6), referred to as HD22, were generously provided by Dr. Jeffrey I. Weitz (McMaster University, Hamilton, ONT, Canada). A monoclonal antibody directed against thrombin exosite II (34) was a gift from Dr. Douglas M. Tollefsen (Washington University, St. Louis, Mo.). Production of Recombinant Fibrinogens Recombinant fibrinogen molecules were expressed with tyrosine to phenylalanine mutations in the γ′ chain at positions γ′ 418 and/or γ′ 422. Plasmid pAG-γ′ (10) was used as the template for site-directed mutagenesis (35) using the primer GAA-ACA-GAA-TTT-GAC-TCA-CTT (SEQ ID NO: 7) for Y418F, GAC-TCA-CTT-TTC-CCT-GAG-GAT (SEQ ID NO: 8) for Y422F, and GAA-ACA-GAA-TTT-GAC-TCA-CTT-TTC-CCT-GAG-GAT (SEQ ID NO: 9) for Y418F/Y422F. The mutated pAG-γ′ plasmids were co-transfected with pBD-1 into a baby hamster kidney cell line as described previously (10). Recombinant fibrinogens were labeled with 1 mCi/ml ^35SO4 in serum-free medium and immunoprecipitated from the medium using a rabbit polyclonal anti-fibrinogen antiserum (Accurate Chemical and Scientific Corp., Westbury, N.Y.) as described previously (10). The amount of fibrinogen secreted during the labeling was determined using an ELISA described previously (10). Identical amounts of radiolabeled fibrinogens (300 ng) were resolved by SDS-polyacrylamide gel electrophoresis on 10% gels under reducing conditions (36) and exposed to X-ray film. Thrombin/γ′ Peptide Binding Assay. To quantitate the binding of thrombin to the γ′ chain carboxyl terminus, 50 nM […]-Y (PO3)-DSL-Y (PO3)—PEDDL (SEQ ID NO: 10) peptide (Research Genetics), corresponding to the carboxyl terminal twenty amino acids of the γ′ chain, was labeled for 1 hour at 37° C. with a 5-fold molar excess of fluorescein succinimidyl ester (PanVera) in 100 mM potassium phosphate, pH 7.0 as per the manufacturer's protocol. Unreacted fluorescein succinimidyl ester was reacted with 100 mM Tris, pH 8.0 for 30 minutes and removed by desalting the fluoresceinated peptide on Sephadex G-15 in 137 mM NaCl/2.7 mM KCl/10 mM HEPES, pH 7.4. 2 nM fluoresceinated peptide was incubated with the indicated concentrations of thrombin for 30 seconds at 22° C. in 50 μg/ml BSA/137 mM NaCl/2.7 mM KCl/10 mM HEPES, pH 7.4. Fluorescence polarization was measured following excitation at 488 nm and emission at 535 nm. The data are fit to the equation: y=x/(b+x) where y is fit to x, using “x” as the concentration of thrombin and “b” as the Kd.
# Competitive binding assays were performed by incubating 2 nM fluoresceinated peptide with 2 μM α-thrombin in the presence of the indicated concentrations of competing ligand. Fluorescence polarization was measured following excitation at 488 nm and emission at 535 nm.
# α-thrombin [2] = target: T1, α-thrombin; assay: Thrombin/γ′ peptide binding assay (fluorescence polarization); set-up: Human α-thrombin; gift: Dr. John Fenton, II (New York State Department of Health) and Dr. Walter Kisiel (University of New Mexico); conditions: 2 nM fluoresceinated peptide, 22° C., pH 7.4, read-out: Kd, binding of α-thrombin to fluoresceinated γ′ 408-427 peptide
# Text: Proteins, Peptides, and DNA Aptamers. Human α-thrombin was generously provided by Dr. John Fenton, II (New York State Department of Health, Albany, N.Y.) and Dr. Walter Kisiel (University of New Mexico, Albuquerque, N. Mex.). Human γ-thrombin was obtained from Haematologic Technologies, Inc. (Essex Junction, Vt.). Tyrosine-phosphorylated derivatives of peptides corresponding to the γ′ chain carboxyl terminus, […] (SEQ ID NO: 11), were obtained from Research Genetics, Inc. (Huntsville, Ala.) and GeneMed Synthesis, Inc. (South San Francisco, Calif.). The peptides were purified to >95% purity by HPLC, and their molecular weights were verified by mass spectrometry. […] The amount of fibrinogen secreted during the labeling was determined using an ELISA described previously (10). […] To quantitate the binding of thrombin to the γ′ chain carboxyl terminus, 50 nM […]-Y (PO3)-DSL-Y (PO3)—PEDDL (SEQ ID NO: 10) peptide (Research Genetics), corresponding to the carboxyl terminal twenty amino acids of the γ′ chain, was labeled for 1 hour at 37° C. with a 5-fold molar excess of fluorescein succinimidyl ester (PanVera) in 100 mM potassium phosphate, pH 7.0 as per the manufacturer's protocol. […] Fluorescence polarization was measured following excitation at 488 nm and emission at 535 nm. […]
# α-thrombin [3] = target: T1, α-thrombin; assay: Thrombin inhibition assay (ATIII, with or without heparin, Chromozym TH); format: biochemical; set-up: incubating 2 nM fluoresceinated peptide with 2 μM α-thrombin; thrombin: gift of Dr. John Fenton, II and Dr. Walter Kisiel; tracer peptide: Research Genetics
# Method: Thrombin Inhibition Assay. […] In some experiments, 0.33 μM heparin (Sigma) was included in the reaction. The inhibition reaction was terminated by the addition of 0.3 ml of a vast molar excess of substrate, 1.25 mg/ml Chromozym TH (Boehringer Mannheim, Indianapolis, Ind.), and the remaining thrombin activity was subsequently measured by monitoring the absorbance at 405 nm for 15 minutes at 22° C. Results Two Tyrosine Residues in the γ′ Chain Are Sulfated. […] Since the γ′ chain differs from the γA chain only in its carboxyl terminal 20 amino acids, it has been assumed that the sulfated residues are within this 20 amino acid sequence, although the addition of the γ′ sequence could also induce conformational changes in the γ chain that expose new sites for sulfation upstream of the carboxyl terminus. […] The carboxyl terminus of the γ′ chain contains two potential sites for tyrosine sulfation at positions γ′ Y418 and γ′ Y422. […] However, no direct evidence of sulfation at γ′ Y418 or γ′ Y422 was presented. Furthermore, in both bovine and rat fibrinogen, the γ′ chain terminates at the equivalent of γ′ 420, prior to γ′ Y422 (37, 38). The rat γ′ chain does, however, contain sulfotyrosine (39). […]
# [4] = test system: normal human reference plasma; assay: Activated partial thromboplastin time (aPTT) assay in human plasma; format: biochemical; conditions: human plasma; 0-1 mM peptide
# Method: Activated Partial Thromboplastin Time (aPTT) Assay. This anti-coagulation assay was chosen for testing the γ′ peptides due to its sensitivity to heparin-like compounds, its ease of use, and the ability to automate the procedure. An MLA 1600 instrument (Organon Teknika) was used to quantitate the effect of the γ′ peptides on the aPTT, using the manufacturer's protocol. Briefly, 0-1 mM γ′ peptides or 0-10 units/ml unfractionated heparin was added to 50 μl of normal reference plasma (Ortho) and manually loaded into the MLA 1600. The MLA 1600 added SynthASil aPTT reagent (Ortho) to initiate clotting, and clot formation was monitored spectrophotometrically for 106 seconds. […] Prothrombin Time/International Normalized Ratio Assay. This clotting assay is less sensitive to heparin than the aPTT, and may be used to determine if a γ′ peptide is capable of prolonging the prothrombin time (PT) to the same extent as the 3 aPTT. One-stage PT assays may be performed using an MLA 1600 instrument according to the manufacturer's protocol. Briefly, 0-1 mM γ′ peptide or scrambled peptide or 0-10 units/ml unfractionated heparin may be added to 50 μl of normal reference plasma (Ortho) and manually loaded into the MLA 1600. The MLA 1600 may be used to add recombinant thromboplastin (Recombiplastin, Ortho) to initiate clotting, and clot formation monitored spectrophotometrically for 106 seconds. If a clot is not generated within 106 seconds, the MLA will automatically extend the observation time to 212 seconds.
# An aPTT assay was performed using human plasma to determine the effect of γ′ peptide on the clotting time in this system. […] The MLA 1600 added SynthASil aPTT reagent (Ortho) to initiate clotting and clot formation was monitored spectrophotometrically for 106 seconds. […]
# An aPTT assay was performed using human plasma to determine the effect of γ′ deletion peptides on the clotting time in this system. […] The MLA 1600 added SynthASil aPTT reagent (Ortho) to initiate clotting and clot formation was monitored spectrophotometrically for 106 seconds. […]
# thrombin = thrombin (Homo sapiens, UniProt P00734); conditions: prior studies by others (43); read-out: Ki, direct inhibitory activity towards thrombin; cited from earlier work
Compound,Inhibition of α-thrombin binding to fluoresceinated γ′ 408-427 peptide (in words) (α-thrombin [1]),Anticoagulant effect in aPTT (in words) [4],further results
"5′-AGT-CCG-TGG-TAG-GGC-AGG-TTG-GGG-TGA-CT-3′ [HD22, reference compound]",more potent competitor than HD1,–,–
CC(C)C[C@H](NC(=O)[C@H](CC(=O)O)NC(=O)[C@H](CC(=O)O)NC(=O)[C@H](CCC(=O)O)NC(=O)[C@@H]1CCCN1C(=O)[C@H](Cc1ccc(OP(=O)(O)O)cc1)NC(=O)[C@H](CC(C)C)NC(=O)[C@H](CO)NC(=O)[C@H](CC(=O)O)NC(=O)[C@H](Cc1ccc(OP(=O)(O)O)cc1)NC(=O)[C@H](CCC(=O)O)NC(=O)[C@@H](NC(=O)[C@H](CCC(=O)O)NC(=O)[C@H](C)NC(=O)[C@@H]1CCCN1C(=O)[C@H](Cc1c[nH]cn1)NC(=O)[C@H](CCC(=O)O)NC(=O)[C@@H]1CCCN1C(=O)[C@H](CCCNC(=N)N)NC(=O)[C@@H](N)C(C)C)[C@@H](C)O)C(=O)O [γ′ 408-427] (H-VRPEHPAETE[pY]DSL[pY]PEDDL-OH; N-terminus and C-terminus assumed),–,–,"Kd (α-thrombin [2]): 430 ± 80 nM; Ki (α-thrombin [1]; read-out: Ki, competition for α-thrombin binding to fluoresceinated γ′ 408-427 peptide): 520 ± 140 nM; Effect on heparin's acceleration of thrombin inhibition by ATIII (α-thrombin [3]; 0.33 μM heparin, 13.7 nM ATIII, 0-1.0 mM γ′ peptide, 15 minutes): antagonized the accelerative activity of heparin in a dose-dependent manner; Direct inhibition of thrombin (α-thrombin [3]; concentrations up to 1 mM, data not shown): not directly inhibitory"
"AETEY(*)DSLY(*)PEDDL (AETEYDSLYPEDDL; not fully specified (residues 5, 9); printed as AETEY(*)DSLY(*)PEDDL) [peptide 414-427]",lower affinity,reduced level of anticoagulant activity,–
"EY(*)DSLY(*)PEDDL (EYDSLYPEDDL; not fully specified (residues 2, 6); printed as EY(*)DSLY(*)PEDDL) [peptide 417-427]",completely inactive,further reduction in activity,–
"VRPEHPAETEY(*)DSLY(*)PE (VRPEHPAETEYDSLYPE; not fully specified (residues 11, 15); printed as VRPEHPAETEY(*)DSLY(*)PE) [peptide 408-424]",lower affinity,–,–
VRPEHPAETEYDSLYPEDDL [nonphosphorylated peptide],completely inactive,–,Ki (thrombin): 130 µM
